Data taken from patent EP4786459A1, “BENZENE RING-CONTAINING COMPOUND HAVING ANALGESIC EFFECT, PREPARATION METHOD THEREFOR, AND USE THEREOF” (West China Hospital, Sichuan University, priority 2023, dated 2025).

How the values were obtained:
rats = assay: Loss of tail withdrawal reflex (LOTWR) in rats, single intravenous injection, dose escalation: potent analgesic effect and severe adverse reactions; type: in vivo, SD rats; conditions: Rattus norvegicus, single intravenous injection (tail vein), LOTWR lasting for 30 seconds as criterion, class symbol, read-out: The minimum effective dose
Experimental: (§1) Using the loss of tail withdrawal reflex (LOTWR) in rats as an indicator, the potent analgesic effect of the compounds according to the present invention was evaluated.
(§2) 1.1 Experimental animals: Adult male SD rats weighing between 220-300 g were selected for the experiment. The rats were housed in sawdust-bedded cages with a temperature of 25±1°C, humidity ranging from 40% to 60%, and a 12-hour light/12-hour dark cycle. Each cage contained no more than 5 rats, with free access to water and food.
(§3) • (1) The compound of the present invention, along with the positive control drug remifentanil and the negative control (vehicle), were administered in fixed volumes. A dose escalation approach was employed to determine the minimum effective dose at which the compound of the present invention produces potent analgesic effects, as well as the minimum dose at which severe adverse reactions first appear. • (2) LOTWR lasting for 30 seconds was used as the criterion for generating potent analgesic effects. During the experiment, drugs were administered via the tail vein of rats, with a dosage volume of 0.6 mL per rat and a dosage rate of 0.02 mL/s. Subsequently, an alligator clip was applied at a distance of 1 cm from the base of the rat's tail, clamping once longitudinally and once transversely before being left in place. Meanwhile, the distal end of the alligator clip was continuously oscillated (30 times/min) to continuously generate stimulation. […] When all results were "no LOTWR" after 10 minutes of testing (5 trials), the test was stopped and recorded as "ineffective." • (3) All compounds would undergo a dose escalation for efficacy evaluation, starting from 1 mg/kg (due to the high potency of remifentanil, the lowest dose was set at 1 µg/kg), followed by 5 mg/kg, 10 mg/kg, 20 mg/kg, and so on (increasing by 20 mg/kg increments after 20 mg/kg). The dose escalation would be stopped when rats show signs of death, and the lowest effective dose and the lowest dose at which severe adverse reactions occur would be recorded throughout the process. In this study, severe adverse reactions are defined as apnea, generalized tonic rigidity, convulsions, opisthotonus, seizures, etc.
(§4) 1.3 Evaluation indicators: the minimum effective dose; the minimum dose resulting in serious adverse reactions; the safety therapeutic index = "the minimum dose resulting in serious adverse reactions" / "the minimum effective dose".

[1] = as above; type: in vivo, SD rats; conditions: rat, in vivo, single intravenous injection, minimum dose resulting in serious adverse reactions / minimum effective dose, class symbol, read-out: The safety therapeutic index
Experimental: as §1, §2, §3, §4

SMILES	minimal effective dose (rats) [mg/kg]	selectivity ratio [1]
Cc1cc(C)cc(CNC(=O)NCc2ccc(C)cc2N(C)C)c1 [Example 63]	≤ 10	≤ 2
Cc1ccc(CNC(=O)NCc2cnc[nH]2)c(N(C)C)c1 [Example 64]	≤ 10	> 4
Cc1ccc(CNC(=O)NCc2ccnn2C)c(N(C)C)c1 [Example 65]	≤ 10	> 4
Cc1ccc(CNC(=S)NCc2ccns2)c(N(C)C)c1 [Example 66]	≤ 10	2 to 4
Cc1ccc(CNC(=S)NCc2cccs2)c(N(C)C)c1 [Example 67]	≤ 10	> 4
Cc1ccc(CNC(=S)NCc2ccns2)cc1N(C)C [Example 68]	≤ 10	2 to 4
Cc1ccc(CNC(=S)NCc2ccco2)c(N(C)C)c1 [Example 69]	≤ 10	2 to 4
Cc1ccc(CNC(=S)NCc2ccoc2)c(N(C)C)c1 [Example 70]	10 to 20	≤ 2
Cc1ccc(CNC(=S)NCc2ccco2)cc1N(C)C [Example 71]	≤ 10	≤ 2
Cc1ccc(CNC(=S)NCc2ccoc2)cc1N(C)C [Example 72]	≤ 10	2 to 4
Cc1ccc(CNC(=S)NCc2ncc[nH]2)c(N(C)C)c1 [Example 74]	> 30	≤ 2
Cc1ccc(CNC(=N)NCc2ncc[nH]2)c(N(C)C)c1 [Example 75]	≤ 10	2 to 4
CCCc1ccc(CNC(=S)NCc2cccs2)c(N(C)C)c1 [Example 76]	≤ 10	> 4
CCCc1ccc(CNC(=S)NCc2cccs2)cc1N(C)C [Example 77]	≤ 10	2 to 4
CN(C)c1ccc(CNC(=O)NCc2cccs2)cc1 [Example 78]	10 to 20	≤ 2
Cc1ccc(NC(=S)Nc2ccsc2)cc1N(C)C [Example 79]	20 to 30	≤ 2
Cc1ccc(CCNC(=S)Nc2cccs2)c(N(C)C)c1 [Example 81]	≤ 10	2 to 4
[2H]C([2H])([2H])N(c1cc(C)ccc1CNC(=S)NCc1cccs1)C([2H])([2H])[2H] [Example 82]	≤ 10	2 to 4
Cc1ccc(NC(=S)Nc2cccs2)c(N(C)C)c1 [Example 83]	≤ 10	> 4
Cc1ccc(CNC(=S)NCc2ccccc2)c(N(C)C)c1 [Example 85]	≤ 10	≤ 2
Cc1ccc(CNC(=S)NCc2ccccc2)cc1N(C)C [Example 86]	≤ 10	2 to 4
Cc1ccc(CNC(=S)NCc2ccnn2C)c(N(C)C)c1 [Example 87]	≤ 10	> 4
CN(C)c1cc(C(F)(F)F)ccc1CNC(=S)NCc1cccs1 [Example 88]	≤ 10	> 4
Cc1ccc(CNC(=S)NCc2cccs2)c(N2CCOCC2)c1 [Example 89]	≤ 10	2 to 4
Cc1ccc(CNC(=N)NCc2ccns2)c(N(C)C)c1 [Example 90]	≤ 10	2 to 4
Cc1ccc(CNC(=N)NCc2ccno2)c(N(C)C)c1 [Example 92]	≤ 10	2 to 4
Cc1ccc(CNC(=S)NCc2cc3ccccc3s2)c(N(C)C)c1 [Example 93]	≤ 10	≤ 2
Cc1ccc(CNC(=S)NCc2ccc3ccsc3c2)c(N(C)C)c1 [Example 94]	≤ 10	> 4

SMILES	minimal effective dose (rats) [mg/kg]	selectivity ratio [1]
CN(C)c1cccc(NC(=N)Nc2cccs2)c1 [Example 95]	≤ 10	≤ 2
CN(C)c1cccc(NC(=N)Nc2ccsc2)c1 [Example 96]	≤ 10	≤ 2
CN(C)c1ccccc1NC(=O)Nc1ccns1 [Example 97]	> 30	≤ 2
Cc1ccc(CSC(=S)SCc2cccs2)c(N(C)C)c1 [Example 98]	> 30	≤ 2
Cc1ccc(CSC(=O)OCc2ccsc2)c(N(C)C)c1 [Example 99]	> 30	≤ 2
Cc1ccc(COC(=S)SCc2ccsc2)c(N(C)C)c1 [Example 100]	> 30	≤ 2
Cc1ccc(CSC(=O)SCc2cccs2)c(N(C)C)c1 [Example 101]	> 30	2 to 4
Cc1ccc(CNC(=O)Nc2ncc[nH]2)c(N(C)C)c1 [Example 103]	≤ 10	> 4
Cc1ccc(CNC(=O)Nc2ccn[nH]2)c(N(C)C)c1 [Example 104]	> 30	≤ 2
CN(C)c1cc(CNC(=O)NCc2ccco2)ccc1C(F)(F)F [Example 105]	≤ 10	> 4
Cc1ccc(CNC(=S)Nc2cncs2)c(N(C)C)c1 [Example 106]	≤ 10	> 4
Cc1ccc(CNC(=S)NCc2cc(C)nn2C)c(N(C)C)c1 [Example 107]	10 to 20	2 to 4
Cc1ccc(CNC(=N)NCc2cc(C)nn2C)c(N(C)C)c1 [Example 108]	≤ 10	> 4
Cc1ccc(CNC(=N)NCc2ccnn2C)cc1N(C)C [Example 109]	≤ 10	≤ 2
Cc1cc(CNC(=N)NCc2ccc(C)c(N(C)C)c2)n(C)n1 [Example 110]	≤ 10	≤ 2
Cc1ccc(CNC(=N)NCc2ccnn2C)c(N(C)C)c1 [Example 111]	≤ 10	≤ 2
Cc1ccc(CNC(=O)NCc2ccnn2C)cc1N(C)C [Example 112]	≤ 10	> 4
Cc1cc(CNC(=O)NCc2ccc(C)c(N(C)C)c2)n(C)n1 [Example 113]	10 to 20	> 4
CCCCc1ccc(CNC(=S)Nc2cccs2)c(N(C)C)c1 [Example 114]	≤ 10	2 to 4
Cc1cc(CNC(=S)NCc2ccc(C)c(N(C)C)c2)n(C)n1 [Example 115]	≤ 10	> 4
Cc1ccc(CNC(=S)NCc2ccnn2C)cc1N(C)C [Example 116]	≤ 10	2 to 4
Cc1ccc(CNC(=O)NCc2cc(C)nn2C)c(N(C)C)c1 [Example 117]	> 30	2 to 4
CN(C)c1cc(C(C)(C)C)ccc1CNC(=S)NCc1cccs1 [Example 118]	≤ 10	≤ 2
CN(C)c1cc(C2CC2)ccc1CNC(=S)NCc1cccs1 [Example 119]	≤ 10	≤ 2
CCCCc1ccc(CNC(=O)NCc2ccco2)cc1N(C)C [Example 120]	≤ 10	> 4
Cc1ccc(CSC(=S)OCc2ccsc2)c(N(C)C)c1 [Example 121]	> 30	2 to 4
Cc1ccc(NC(=S)NCc2cccs2)c(N(C)C)c1 [Example 122]	≤ 10	> 4
